The target of assay [1] is T1, human adrenergic-α2C receptor (Homo sapiens, UniProt P18825).
T1 construct: expressed in transfected cells; host or cells: CHO cells, stably transfected; membranes
T1 sequence (P18825 1-462): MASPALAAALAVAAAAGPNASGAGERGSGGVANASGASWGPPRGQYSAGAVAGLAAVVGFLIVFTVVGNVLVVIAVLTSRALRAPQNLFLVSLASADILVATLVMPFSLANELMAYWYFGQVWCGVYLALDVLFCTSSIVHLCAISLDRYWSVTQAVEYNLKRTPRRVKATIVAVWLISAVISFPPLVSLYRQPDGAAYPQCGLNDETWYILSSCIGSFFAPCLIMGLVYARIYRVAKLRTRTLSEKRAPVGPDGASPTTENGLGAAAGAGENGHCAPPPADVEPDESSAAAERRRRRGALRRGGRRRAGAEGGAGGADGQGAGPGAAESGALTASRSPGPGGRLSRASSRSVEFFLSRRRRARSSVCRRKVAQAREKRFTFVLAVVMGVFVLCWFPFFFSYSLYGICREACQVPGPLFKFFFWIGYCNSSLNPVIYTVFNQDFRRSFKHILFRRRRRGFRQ
Put plainly: Radioligand binding experiment for α2C-adrenoceptor ([3H]raulwolscine, CHO cell membranes). As to conditions: [3H]raulwolscine 1 nM, membranes of CHO cells transfected with human α2C receptor; read-out: h-α2C pIC50 (converted). As for the experimental part: (§1) The interaction of a compound of Formula (I) with α2C-adrenoceptor receptors was assessed in in vitro radioligand binding experiments. In general, a low concentration of a radioligand with a high binding affinity for a particular receptor or transporter is incubated with a sample of a tissue preparation enriched in a particular receptor or transporter or with a preparation of cells expressing cloned human receptors in a buffered medium. During the incubation, the radioligand binds to the receptor or transporter. When equilibrium of binding is reached, the receptor bound radioactivity is separated from the non-bound radioactivity, and the receptor- or transporter-bound activity is counted. The interaction of the test compounds with the receptor is assessed in competition binding experiments. Various concentrations of the test compound are added to the incubation mixture containing the receptor- or transporter preparation and the radioligand. The test compound in proportion to its binding affinity and its concentration inhibits binding of the radioligand. The radioligand used for hα2A and hα2C receptor binding was [^3H]-raulwolscine.
(§2) CHO cells, stabile transfected with human adrenergic-α2A and α2C receptor cDNA, were cultured in Dulbecco's Modified Eagle's Medium (DMEM)/Nutrient mixture Ham's F12 (ratio 1:1) (Gibco, Gent-Belgium) supplemented with 10% heat inactivated fetal calf serum (Life Technologies, Merelbeke-Belgium) and antibiotics (100 IU/ml penicillin G, 100 μg/ml streptomycin sulphate, 110 μg/ml pyruvic acid and 100 μg/ml L-glutamine). One day before collection, cells were induced with 5 mM sodiumbutyrate. Upon 80-90% of confluence, cells were scraped in phosphate buffered saline without Ca^2+ and Mg^2+ and collected by centrifugation at 1500×g for 10 minutes. The cells were homogenised in Tris-HCl 50 mM using an Ultraturrax homogenizer and centrifuged for 10 minutes at 23,500×g. The pellet was washed once by resuspension and rehomogenization and the final pellet was resuspended in Tris-HCl, divided in 1 ml aliquots and stored at −70° C.
(§3) Membranes were thawed and re-homogenized in incubation buffer (glycylglycine 25 mM, pH 8.0). […] Filters were rinsed extensively with ice-cold rinsing buffer (Tris-HCl 50 mM pH 7.4). Filter-bound radioactivity was determined by scintillation counting in a Topcount (Packard, Meriden, Conn.) and results were expressed as counts per minute (cpm). Non-specific binding was determined in the presence of 1 μM oxymetazoline for the hα2A receptor and 1 μM spiroxatrine for hα2C receptors.
(§4) Data from assays in the presence of compound were calculated as a percentage of total binding measured in the absence of test compound. Inhibition curves, plotting percent of total binding versus the log value of the concentration of the test compound, were automatically generated, and sigmoidal inhibition curves were fitted using non-linear regression. The pIC50 values of test compounds were derived from individual curves.

Assay [2] addresses T2, human adrenergic-α2A receptor (Homo sapiens, UniProt P08913).
T2 construct: expressed in transfected cells; host or cells: CHO cells, stably transfected; membranes
T2 sequence (P08913 1-465): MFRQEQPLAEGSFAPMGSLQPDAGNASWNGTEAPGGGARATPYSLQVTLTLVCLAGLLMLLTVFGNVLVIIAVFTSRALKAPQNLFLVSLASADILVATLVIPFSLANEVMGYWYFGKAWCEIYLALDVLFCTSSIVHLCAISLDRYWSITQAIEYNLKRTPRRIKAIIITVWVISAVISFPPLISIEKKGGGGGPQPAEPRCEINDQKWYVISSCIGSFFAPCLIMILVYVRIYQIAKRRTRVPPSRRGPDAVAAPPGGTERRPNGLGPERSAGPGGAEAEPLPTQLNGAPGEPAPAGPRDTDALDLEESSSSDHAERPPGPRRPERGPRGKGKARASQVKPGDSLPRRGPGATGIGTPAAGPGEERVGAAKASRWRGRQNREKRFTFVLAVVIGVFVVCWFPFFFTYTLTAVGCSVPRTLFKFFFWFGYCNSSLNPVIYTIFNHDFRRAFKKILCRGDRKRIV
Kind of assay: Radioligand binding experiment for hα2A receptor ([3H]raulwolscine, CHO cell membranes). As for the experimental part: as §1, §2, §3, §4

A further assay concerns the target T3, 5HT-Transporter (Homo sapiens, UniProt P31645).
T3 construct: Human platelet membranes (Oceanix Biosciences Corporation, Hanover, Md., USA) were thawed; tissue Oceanix Biosciences Corporation; host or cells: human platelet membranes
Kind of assay: Binding experiment for the 5HT-transporter ([3H]paroxetine, human platelet membranes). How it is done:
as §1
Human platelet membranes (Oceanix Biosciences Corporation, Hanover, Md., USA) were thawed, diluted in buffer (Tris-HCl 50 mM, 120 mM NaCl and 5 mM KCl) and quickly (max 3 s) homogenised with an Ultraturrax homogenizer. […] Incubation was stopped by rapid filtration of the incubation mixture over GF/B filters, pre-wetted with 0.1% polyethyleneamine, using a Filtermate196 harvester (Packard, Meriden, Conn.). Filters were rinsed extensively with ice-cold buffer and radioactivity on the filters was counted in a Topcount liquid scintillation counter (Packard, Meriden, Conn.). Data were expressed as cpm. Imipramine (at 1 μM final concentration) was used to determine the non-specific binding.
as §4

[3] abbreviates: [3H]raulwolscine 1 nM, membranes of CHO cells transfected with human α2A receptor, read-out: h-α2A pIC50 (converted).
Where [4] appears, read: [3H]paroxetine 0.5 nM, read-out: h-5HTT pIC50 (converted).

Consider 21 compounds from patent US20100105694A1, “SUBSTITUTED PYRAZINONE DERIVATIVES FOR USE AS A MEDICINE” (priority 2006, published 2010).

Read-outs that look alike come from different tables or passages of the source.

T3 sequence (P31645 whole entry): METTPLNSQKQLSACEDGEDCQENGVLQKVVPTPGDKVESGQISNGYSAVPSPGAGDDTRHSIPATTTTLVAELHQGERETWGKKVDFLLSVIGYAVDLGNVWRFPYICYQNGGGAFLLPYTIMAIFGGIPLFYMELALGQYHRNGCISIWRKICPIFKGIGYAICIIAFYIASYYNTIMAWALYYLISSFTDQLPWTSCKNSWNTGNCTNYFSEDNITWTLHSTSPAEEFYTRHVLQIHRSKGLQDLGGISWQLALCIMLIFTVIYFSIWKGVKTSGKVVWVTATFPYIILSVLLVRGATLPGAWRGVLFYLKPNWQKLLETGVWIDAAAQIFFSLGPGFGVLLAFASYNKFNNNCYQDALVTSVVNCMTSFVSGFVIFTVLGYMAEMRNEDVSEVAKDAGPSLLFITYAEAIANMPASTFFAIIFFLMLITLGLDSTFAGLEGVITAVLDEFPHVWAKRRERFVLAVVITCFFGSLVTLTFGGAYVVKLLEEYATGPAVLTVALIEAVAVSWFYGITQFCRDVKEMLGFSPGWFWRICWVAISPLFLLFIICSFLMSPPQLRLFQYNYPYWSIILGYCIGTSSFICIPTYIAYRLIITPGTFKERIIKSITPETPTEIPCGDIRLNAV

With `NCc1ccc(Cn2ccnc(NC3CCN(Cc4ccc(-c5ccccc5)cc4)CC3)c2=O)cc1` [Compound 1-1], the IC50 in assay [1] is 251 nM; in assay [2] (setting [3]), 251 nM; on 5HT-Transporter (setting [4]) it was 501 nM.

For `O=c1c(NC2CCN(Cc3ccc(-c4ccccc4)cc3)CC2)nccn1CCN1CCCCC1` [Compound 1-3], the IC50 in assay [1] is 100 nM; in assay [2] (setting [3]) it was 501 nM; at 5HT-Transporter (setting [4]) it was 2510 nM.

For `O=C1c2ccccc2C(=O)N1CCCn1ccnc(NC2CCN(Cc3ccc(-c4ccccc4)cc3)CC2)c1=O` [Compound 1-4], the results for the IC50 (in assay [1]; in assay [2] (setting [3]); on 5HT-Transporter (setting [4])) were 126 nM, 631 nM and 158 nM, respectively.

Consider `COC(=O)Cn1ccnc(NC2CCN(Cc3ccc(-c4ccccc4)cc3)CC2)c1=O` [Compound 1-5], for which the IC50 in assay [1] was 316 nM; in assay [2] (setting [3]) it was 1260 nM; at 5HT-Transporter (setting [4]), 5010 nM.

With `O=c1c(NC2CCN(Cc3ccc(-c4ccccc4)cc3)CC2)nccn1Cc1ccccc1Br` [Compound 1-6], the IC50 in assay [1] is 501 nM; in assay [2] (setting [3]), 794 nM; on 5HT-Transporter (setting [4]), 398 nM.

In the case of `O=c1c(NC2CCN(Cc3ccc(-c4ccccc4)cc3)CC2)nccn1Cc1cccc(Br)c1` [Compound 1-7], the values for the IC50 (in assay [1]; in assay [2] (setting [3]); on 5HT-Transporter (setting [4])) were 398 nM, 1000 nM and 1000 nM, respectively.

Regarding `O=c1c(NC2CCN(Cc3ccc(-c4ccccc4)cc3)CC2)nccn1Cc1ccc(Br)cc1` [Compound 1-8], the IC50 in assay [1] is 794 nM; in assay [2] (setting [3]), 1000 nM; on 5HT-Transporter (setting [4]) it was 631 nM.

For `O=c1c(NC2CCN(Cc3ccc(-c4ccccc4)cc3)CC2)nccn1CC1CCCCO1` (stereo not drawn) [Compound 1-9], the IC50 was 631 nM in assay [1], 2000 nM in assay [2] (setting [3]) and 316 nM at 5HT-Transporter (setting [4]).

Consider `C=CCn1ccnc(N2CCN(Cc3cccc(-c4ccccc4)c3)CC2)c1=O` [Compound 3-4], for which the IC50 was 794 nM in assay [1] and 200 nM in assay [2] (setting [3]).

Consider `O=c1c(N2CCN(Cc3cccc(-c4ccccc4)c3)CC2)nccn1Cc1ccc2ccccc2c1` [Compound 3-7], for which the values for the IC50 (in assay [2] (setting [3]); at 5HT-Transporter (setting [4])) were 200 nM and 5010 nM, respectively.

For `O=c1c(N2CCN(Cc3cccc(-c4ccccc4)c3)CC2)nccn1Cc1ccco1` [Compound 3-8], the IC50 was 316 nM in assay [1] and 79.4 nM in assay [2] (setting [3]).

As to `COc1ccc(-c2nnc(Cn3ccnc(N4CCN(Cc5cccc(-c6ccccc6)c5)CC4)c3=O)o2)cc1` [Compound 3-10], the IC50 in assay [2] (setting [3]) is 501 nM; on 5HT-Transporter (setting [4]), 6310 nM.

`NCc1ccc(Cn2ccnc(NC3CCN(Cc4ccccc4)CC3)c2=O)cc1` [Compound 5-1]: the IC50 at 5HT-Transporter (setting [4]) is 7940 nM.

Regarding `NCc1ccc(CN(c2nccn(Cc3ccc(CN)cc3)c2=O)C2CCN(Cc3ccccc3)CC2)cc1` [Compound 5-3], the IC50 in assay [2] (setting [3]) is 1000 nM; at 5HT-Transporter (setting [4]) it was > 10000 nM.

On to `O=c1c(NC2CCN(Cc3ccccc3)CC2)nccn1CCN1CCCCC1` [Compound 5-4], for which the values for the IC50 (in assay [2] (setting [3]); on 5HT-Transporter (setting [4])) were 3160 nM and > 10000 nM, respectively.

In the case of `NCCCn1ccnc(NC2CCN(CCc3ccccc3)CC2)c1=O` [Compound 6-1], the IC50 in assay [2] is 3980 nM; on 5HT-Transporter (h-5HTT pIC50, [3H]paroxetine 0.5 nM), > 10000 nM.

For `NCc1ccc(Cn2ccnc(NC3CCN(CCc4ccccc4)CC3)c2=O)cc1` [Compound 6-2], the IC50 on 5HT-Transporter (setting [4]) was 3980 nM.

Regarding `NCCCn1ccnc(NC2CCN(CC(c3ccccc3)c3ccccc3)CC2)c1=O` [Compound 9-1], the figures for the IC50 in assay [1] and in assay [2] (setting [3]) were 501 nM and 1000 nM, respectively.

On to `CC(C)(C)OC(=O)NCc1ccc(Cn2ccnc(N3CCN(CCc4ccccc4)CC3)c2=O)cc1` [Compound 10-3], for which the IC50 in assay [1] was 316 nM; in assay [2] (setting [3]), 794 nM.

In the case of `O=C(Cn1ccnc(N2CCN(CCc3ccccc3)CC2)c1=O)c1ccccc1` [Compound 10-7], the IC50 in assay [2] (setting [3]) is 2000 nM; on 5HT-Transporter (setting [4]), > 10000 nM.

Regarding `O=c1c(N2CCN(Cc3ccccc3)CC2)nccn1Cc1ccc2ccccc2c1` [Compound 10-9], the IC50 was 794 nM in assay [1] and 126 nM in assay [2] (setting [3]).
